In ChEMBL document CHEMBL3392959, “Iminosugars as a new class of cholinesterase inhibitors” (Bioorg Med Chem Lett, 2015):
Activity calls are given as the source filed them. The calls are words filed in the database; no cut-off is given here.

Tests used:
Cholinesterase [1] = target: T1, Cholinesterase (Homo sapiens, UniProt P06276)
Description: Inhibition of human recombinant serum BuchE using butyrylthiocholine iodide as substrate by Ellman method

Acetylcholinesterase [2] = target: T2, Acetylcholinesterase (Homo sapiens, UniProt P22303)
Description: Inhibition of human recombinant AchE using acetylthiocholine iodide as substrate by Ellman method

Acetylcholinesterase [3] = target: Acetylcholinesterase (Electrophorus electricus, UniProt O42275); experiment: Inhibition of electric eel AchE using acetylthiocholine iodide as substrate by Ellman method
Cholinesterase [4] = target: T1, Cholinesterase; experiment: Inhibition of human recombinant serum BuchE using butyrylthiocholine iodide as substrate at 250 uM by Ellman method
[5] = target: Acetylcholinesterase (Electrophorus electricus) (UniProt O42275); experiment: Inhibition of electric eel AchE using acetylthiocholine iodide as substrate at 250 uM by Ellman method
Acetylcholinesterase [6] = target: T2, Acetylcholinesterase; experiment: Inhibition of human recombinant AchE using acetylthiocholine iodide as substrate at 250 uM by Ellman method

Acetylcholinesterase (Electrophorus electricus), sequence (O42275 24-633 limits assumed): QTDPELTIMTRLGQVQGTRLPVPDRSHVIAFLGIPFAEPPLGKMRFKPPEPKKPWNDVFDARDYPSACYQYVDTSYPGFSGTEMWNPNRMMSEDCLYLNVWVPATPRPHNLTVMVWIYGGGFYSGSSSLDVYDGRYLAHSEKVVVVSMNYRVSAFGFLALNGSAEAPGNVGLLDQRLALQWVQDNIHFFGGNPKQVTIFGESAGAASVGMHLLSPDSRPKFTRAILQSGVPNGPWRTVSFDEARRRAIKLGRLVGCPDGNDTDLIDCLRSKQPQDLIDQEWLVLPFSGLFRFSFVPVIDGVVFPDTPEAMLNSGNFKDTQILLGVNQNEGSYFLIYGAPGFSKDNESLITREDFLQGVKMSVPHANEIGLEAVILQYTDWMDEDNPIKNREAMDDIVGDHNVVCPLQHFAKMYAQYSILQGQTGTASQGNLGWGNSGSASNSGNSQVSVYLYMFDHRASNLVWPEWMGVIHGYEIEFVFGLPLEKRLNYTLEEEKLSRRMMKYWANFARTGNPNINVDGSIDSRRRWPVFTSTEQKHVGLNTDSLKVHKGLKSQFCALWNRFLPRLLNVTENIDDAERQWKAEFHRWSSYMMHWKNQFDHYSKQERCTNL
Acetylcholinesterase (Electrophorus electricus, UniProt O42275), sequence (O42275 whole entry): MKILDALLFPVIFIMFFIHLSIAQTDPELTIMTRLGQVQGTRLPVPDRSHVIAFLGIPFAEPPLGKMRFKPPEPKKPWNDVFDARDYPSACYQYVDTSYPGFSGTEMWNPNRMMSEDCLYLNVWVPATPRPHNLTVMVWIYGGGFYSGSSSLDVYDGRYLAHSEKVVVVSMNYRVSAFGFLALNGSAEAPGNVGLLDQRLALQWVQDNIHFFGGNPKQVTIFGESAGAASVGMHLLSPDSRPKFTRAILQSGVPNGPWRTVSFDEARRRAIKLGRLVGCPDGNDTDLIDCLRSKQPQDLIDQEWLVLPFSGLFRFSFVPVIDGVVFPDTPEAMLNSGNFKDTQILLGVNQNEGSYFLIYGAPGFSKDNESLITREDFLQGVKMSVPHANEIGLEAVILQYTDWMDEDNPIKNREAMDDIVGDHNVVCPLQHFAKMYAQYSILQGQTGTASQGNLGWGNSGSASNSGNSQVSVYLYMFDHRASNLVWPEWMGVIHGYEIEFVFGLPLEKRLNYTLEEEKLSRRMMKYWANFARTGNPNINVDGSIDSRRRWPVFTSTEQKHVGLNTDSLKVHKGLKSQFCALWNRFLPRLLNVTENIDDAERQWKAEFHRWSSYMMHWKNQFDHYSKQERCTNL
T2 sequence (P22303 whole entry): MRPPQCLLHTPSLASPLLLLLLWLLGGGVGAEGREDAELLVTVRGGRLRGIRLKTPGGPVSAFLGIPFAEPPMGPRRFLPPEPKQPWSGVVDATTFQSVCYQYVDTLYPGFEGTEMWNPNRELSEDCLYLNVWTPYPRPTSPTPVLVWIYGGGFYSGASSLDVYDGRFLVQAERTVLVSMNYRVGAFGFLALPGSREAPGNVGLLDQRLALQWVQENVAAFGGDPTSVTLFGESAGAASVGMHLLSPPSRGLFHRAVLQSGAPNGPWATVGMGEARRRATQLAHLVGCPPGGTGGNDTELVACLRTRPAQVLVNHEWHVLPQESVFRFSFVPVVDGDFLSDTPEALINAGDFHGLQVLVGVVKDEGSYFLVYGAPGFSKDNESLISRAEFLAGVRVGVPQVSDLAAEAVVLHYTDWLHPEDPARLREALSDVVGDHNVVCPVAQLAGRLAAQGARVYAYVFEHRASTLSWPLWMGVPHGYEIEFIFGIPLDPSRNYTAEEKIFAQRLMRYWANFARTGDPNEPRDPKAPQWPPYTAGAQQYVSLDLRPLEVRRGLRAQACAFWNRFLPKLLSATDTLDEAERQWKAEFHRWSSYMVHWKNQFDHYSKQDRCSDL
T1 sequence (P06276 whole entry): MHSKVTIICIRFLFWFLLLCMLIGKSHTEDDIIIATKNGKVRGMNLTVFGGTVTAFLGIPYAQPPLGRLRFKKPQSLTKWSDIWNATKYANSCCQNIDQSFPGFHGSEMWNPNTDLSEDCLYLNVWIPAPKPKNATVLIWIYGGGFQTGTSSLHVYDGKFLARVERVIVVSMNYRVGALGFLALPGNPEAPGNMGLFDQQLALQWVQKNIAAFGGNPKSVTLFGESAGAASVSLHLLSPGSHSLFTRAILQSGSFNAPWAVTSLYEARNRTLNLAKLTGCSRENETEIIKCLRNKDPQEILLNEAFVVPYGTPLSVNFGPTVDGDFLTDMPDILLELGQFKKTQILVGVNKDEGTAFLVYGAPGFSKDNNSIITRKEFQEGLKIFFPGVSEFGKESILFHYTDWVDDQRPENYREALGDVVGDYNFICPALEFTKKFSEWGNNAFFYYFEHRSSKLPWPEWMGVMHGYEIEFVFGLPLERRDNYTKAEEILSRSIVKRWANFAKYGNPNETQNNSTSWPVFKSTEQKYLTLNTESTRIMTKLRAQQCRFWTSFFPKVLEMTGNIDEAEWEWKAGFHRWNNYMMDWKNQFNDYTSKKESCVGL

Structure (SMILES) | IC50 (Cholinesterase [1]) | IC50 (Acetylcholinesterase [2]) | IC50 (Acetylcholinesterase [3]) | inhibition (Cholinesterase [4]) | inhibition [5] | inhibition (Acetylcholinesterase [6])
C=CC[C@@H]1[C@H](O)[C@@H](OCc2ccccc2)[C@H](O)CN1CCCCCCCC | 3 µM | 22 µM | 63 µM | – | – | –
CCCc1cn(CCCCCCN2C[C@H](O)[C@@H](O)[C@H](O)[C@H]2CO)nn1 | – | – | – | inactive | inactive | inactive
O[C@@H]1[C@@H](O)[C@@H](Cc2cn(CCC(c3ccccc3)c3ccccc3)nn2)NC[C@H]1O | 15 µM | – | – | – | < 50% | < 50%
CCC[C@@H]1NC[C@@H](O)[C@H](O)[C@H]1O | 210 µM | – | – | – | < 50% | < 50%
O=C1N[C@H](COCc2ccccc2)[C@@H](OCc2ccccc2)[C@H](OCc2ccccc2)[C@H]1OCc1ccccc1 | 4 µM | 46 µM | 2 µM | – | – | –
O[C@@H]1[C@@H](O)[C@@H](Cc2cn(Cc3cc(OCc4ccccc4)cc(OCc4ccccc4)c3)nn2)NC[C@H]1O | 1.2 µM | – | – | – | < 50% | < 50%
C[Si](C)(C)CCCn1cc(C[C@H]2NC[C@@H](O)[C@H](O)[C@H]2O)nn1 | – | – | – | inactive | inactive | inactive
CCCCN1C[C@@H](O)[C@H](O)[C@@H](O)[C@H]1CCC | – | – | – | inactive | inactive | inactive
CCCCCCCCCCn1cc(C[C@H]2NC[C@@H](O)[C@H](O)[C@H]2O)nn1 | – | – | – | inactive | inactive | inactive
CCCCCCCCN1C[C@@H](O)[C@H](O)[C@@H](O)[C@H]1CCC | – | – | – | inactive | inactive | inactive
CCCCCCCCC[C@H]1NC[C@@H](O)[C@H](O)[C@H]1O | – | – | – | inactive | inactive | inactive
C=CC[C@H]1NC[C@@H](O)[C@H](O)[C@H]1O | – | – | – | inactive | inactive | inactive
C=CC[C@H]1NC[C@@H](O)[C@H](OCc2ccccc2)[C@H]1O | 61 µM | – | – | – | < 50% | < 50%
O[C@@H]1[C@@H](OCc2ccccc2)[C@@H](Cc2cn(Cc3ccccc3)nn2)NC[C@H]1O | 7 µM | – | – | – | < 50% | < 50%
CCCCCCCCO[C@H]1CN(CCCCCCCC)[C@H](CO)[C@H](O)[C@@H]1O | – | – | – | inactive | inactive | inactive
C=CC[C@@H]1[C@H](O)[C@@H](O)[C@H](O)CN1CCCCCCCC | 161 µM | – | – | – | < 50% | < 50%
CCCCCC[C@H]1NC[C@@H](O)[C@H](O)[C@H]1O | – | – | – | inactive | inactive | inactive
CCCCCCCCO[C@H]1[C@H](O)[C@@H](O)CN(CCCCCCCC)[C@@H]1CO | – | – | – | inactive | inactive | inactive
O[C@@H]1[C@@H](O)[C@@H](Cc2cn(Cc3ccccc3)nn2)NC[C@H]1O | – | – | – | inactive | inactive | inactive
CCCCCCO[C@H]1CNC[C@@H](O)[C@@H]1O | – | – | – | inactive | inactive | inactive
C#CC[C@H]1NC[C@@H](O)[C@H](O)[C@H]1OCc1ccccc1 | – | – | – | inactive | inactive | inactive
c1ccc(COC[C@H]2NC[C@H](OCc3ccccc3)[C@@H](OCc3ccccc3)[C@@H]2OCc2ccccc2)cc1 | 2 µM | 60 µM | 3 µM | – | – | –
CCCCCC[C@H]1N[C@@H](CO)[C@@H](O)[C@H](O)[C@H]1O | – | – | – | inactive | inactive | inactive
